Assay results published in US20070015729A1, “Conjugate of cyclodextrin and poly(oxyethylene), and process for preparation thereof” (priority 2005, published 2007).

Assay: TGA (thermogravimetric analysis) of thermal stability
Details: FIG. 3, ranking among the three compounds

thermal stability: highest
Compound: OC[C@H]1O[C@@H]2O[C@H]3[C@H](O)[C@@H](O)[C@@H](O[C@H]4[C@H](O)[C@@H](O)[C@@H](O[C@H]5[C@H](O)[C@@H](O)[C@@H](O[C@H]6[C@H](O)[C@@H](O)[C@@H](O[C@H]7[C@H](O)[C@@H](O)[C@@H](O[C@H]8[C@H](O)[C@@H](O)[C@@H](O[C@H]1[C@H](O)[C@H]2O)O[C@@H]8CO)O[C@@H]7CO)O[C@@H]6CO)O[C@@H]5CO)O[C@@H]4CO)O[C@@H]3CO [β-CD, β-cyclodextrin]
